Here are results for 1 compound from patent US10654890B2, “Cyclic peptide derivative, method for preparing same and composition thereof” (priority 2014, dated 2020).

In data set [1] the test system is human leukemia cells (K562). The experiment in a line: Cell proliferation test, human leukemia cells. The data set is classed as cell-based. The note with it: 2.5 μM and 25 μM, FIG. 10. The method, then:
(§1) To see whether or not the astrocyte proliferation accelerating activity of the cyclic peptide derivative is a specific proliferative activity that is limited only to an astrocyte or it is based on a common cell proliferative activity, investigations were made by using normal human dermal fibroblasts (NHDF), human liver cancer cells (HepG2), and human leukemia cells (K562).
(§2) Seeding of each cell on a 96 well plate was carried out by adding 100 μl of a cell suspension in which normal human dermal fibroblasts are prepared at 2.5×10^4 cells/ml or human liver cancer cells and human leukemia cells are prepared at 5×10^4 cells/ml. Since the cyclic peptide derivative is added after dissolving it in PBS (−), only PBS (−) was added as a control.

The subject of the next data set is NGF gene. The experiment in a line: NGF gene expression in culture astrocyte (real time PCR). The data set is classed as cell-based, mouse. The conditions noted are these: 25 μM; from 8 hours to 24 hours after the addition; p<0.05 vs before the addition; calibrated to GAPDH. The method, then:
(§3) By adding the cyclic peptide derivative of 25 μM to an astrocyte of the secondary subculture, the influence on expression of the gene of NGF, GDNF, VFGF-A, BDNF, and VGF as a representative neurotrophic factor was determined over time.
(§4) Except that a cell suspension of an astrocyte of the secondary subculture was prepared to have cell concentration of 3×10^5 cells/ml and the time for exposing the astrocyte to the above 25 μM cyclic peptide derivative was set at 0, 1, 2, 4, 8, 12, and 24 hours, the astrocyte was cultured in the same order as above <6>. As a control group, LG-D-MEM (0% FBS) not added with any cyclic peptide derivative was used.
(§5) Each astrocyte which has been exposed to the cyclic peptide derivative during each time described above was collected, and then, by using RNeasy Mini Kit (QIAGEN), extraction and purification of total RNA were carried out. The extracted total RNA was quantified by using Nano Photometer (IMPLEN). For the reverse transcription reaction, cDNA was synthesized by reacting 500 ng of total RNA with PrimeScript RT Master Mix (TaKaRa) at 37° C. for 15 minutes using GeneAmp PCR System 9600 (PERKIN ELMER), and the reaction was terminated by heating for 5 seconds at 85° C. […]
In general terms: In qPCR the cycle at which signal appears reflects the starting amount.

Data set [2] concerns normal human dermal fibroblasts (NHDF). Description: Cell proliferation test, normal human dermal fibroblasts. The class given is cell-based. The method, then: as §1, §2
A further data set deals with VGF gene. The experiment in a line: VGF gene expression in culture astrocyte (real time PCR). The data set is classed as cell-based, mouse. The conditions noted are these: 25 μM; from 8 hours to 24 hours after the addition; p<0.05 vs before the addition; calibrated to GAPDH. The method, then: as §3, §4, §5
Data set [3] deals with human liver cancer cells (HepG2). Description: Cell proliferation test, human liver cancer cells. The note with it: 2.5 μM and 25 μM, FIG. 10. The class given is cell-based. As to the method:
as §1, §2

For data set [4], the target named is acetylcholine esterase (AChE) (Homo sapiens, UniProt P22303). The experiment in a line: Acetylcholine esterase inhibitory activity test. The data set is classed as biochemical. The conditions noted are these: 1000 nM; FIG. 11. The source says:
Most of existing therapeutic agents for Alzheimer's disease have, as a target mechanism, the inhibitory activity for an acetylcholine esterase which is an enzyme for decomposing acetylcholine as a neurotransmitter. Namely, by inhibiting an acetylcholine esterase, the therapeutic agents for Alzheimer's disease increase an in vivo concentration of acetylcholine.

Sequence of acetylcholine esterase (AChE) (P22303 32-614): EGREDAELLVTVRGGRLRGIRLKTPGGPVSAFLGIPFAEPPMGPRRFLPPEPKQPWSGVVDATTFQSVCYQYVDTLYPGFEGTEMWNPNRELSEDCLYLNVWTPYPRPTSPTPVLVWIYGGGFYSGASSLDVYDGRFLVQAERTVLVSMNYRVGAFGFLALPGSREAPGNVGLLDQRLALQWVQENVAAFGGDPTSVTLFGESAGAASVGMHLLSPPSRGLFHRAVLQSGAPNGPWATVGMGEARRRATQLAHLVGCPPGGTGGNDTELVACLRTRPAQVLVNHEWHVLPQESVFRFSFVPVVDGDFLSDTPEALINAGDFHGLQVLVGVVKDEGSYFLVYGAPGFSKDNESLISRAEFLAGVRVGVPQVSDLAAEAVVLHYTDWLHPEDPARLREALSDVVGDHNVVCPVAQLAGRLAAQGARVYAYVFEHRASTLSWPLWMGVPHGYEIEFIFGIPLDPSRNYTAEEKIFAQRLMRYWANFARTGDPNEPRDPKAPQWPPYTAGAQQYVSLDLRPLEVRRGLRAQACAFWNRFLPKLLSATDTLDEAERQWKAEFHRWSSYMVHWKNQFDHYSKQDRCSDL

Take `CCC1(C)Oc2cc(ccc2O)C(O)C(NC)C(=O)NC(C(C)C)C(=O)NC1C(=O)NC(CCC(=O)O)C(=O)O` (centres unmarked) [cyclic peptide derivative]: the “inhibitory activity on cell proliferation” value in data set [1] is given as “a strong inhibitory activity on cell proliferation was observed”. Besides, the “expression of the gene of NGF” value in the data set on NGF gene is “increased”. The “cytotoxicity for normal cells” value in data set [2] is listed as “low”. Also, in data set [2] (25 μM), the cell proliferation rate was about 80% and the “proliferation of NHDF cells compared to the group with no addition” value is reported as “inhibited in a significant sense”. Also, the “expression of the gene of VGF” value with VGF gene was “increased”. The “inhibitory activity on cell proliferation” value in data set [3] is “a strong inhibitory activity on cell proliferation was observed”. The AChE inhibitory activity result in data set [4] is given as “absolutely no AChE activity was observed”.
